According to ChEMBL document CHEMBL4043271, “Synthesis, computational studies and enzyme inhibitory kinetics of substituted methyl[2-(4-dimethylamino-benzylidene)-hydrazono)-4-oxo-thiazolidin-5-ylidene]acetates as mushroom tyrosinase inhibitors” (Bioorg Med Chem, 2017):
Activity calls are given as the source filed them. The rule behind the calls is not given here.

Columns and labels:
Mushroom tyrosinase [1] = target: T1, Mushroom tyrosinase (Agaricus bisporus, UniProt O42713+Q00024+C7FF04+C7FF05); test: Inhibition of mushroom tyrosinase using L-DOPA as substrate preincubated for 10 mins followed by substrate addition measured after 20 mins
[2] = target: Mushroom tyrosinase (Agaricus bisporus) (UniProt O42713+Q00024+C7FF04+C7FF05); test: Non-competitive inhibition of mushroom tyrosinase at 1.06 to 34 uM preincubated for 10 mins followed by addition of varying concentration of substrate L-DOPA measured after 20 mins by Dixon plot analysis
Mushroom tyrosinase [3] = target: T1, Mushroom tyrosinase; test: Non-competitive inhibition of mushroom tyrosinase at 1.06 to 17 uM preincubated for 10 mins followed by addition of varying concentration of substrate L-DOPA measured after 20 mins by Lineweaver-Burk plot analysis
[4] = tested on: COC(=O)/C=C1\S/C(=N/N=C/c2ccncc2)NC1=O; test: Non-competitive inhibition of mushroom tyrosinase assessed as Vmax of substrate at 8.50 uM preincubated for 10 mins followed by addition of varying concentration of substrate L-DOPA measured every 30 secs up to 5 mins by Lineweaver-Burk plot analysis (reference value: […] deltaA/s); conditions: Agaricus bisporus
[5] = tested on: COC(=O)/C=C1\S/C(=N/N=C/c2ccncc2)NC1=O; test: Non-competitive inhibition of mushroom tyrosinase assessed as Vmax of substrate at 1.06 uM preincubated for 10 mins followed by addition of varying concentration of substrate L-DOPA measured every 30 secs up to 5 mins by Lineweaver-Burk plot analysis (reference value: […] deltaA/s); conditions: Agaricus bisporus
[6] = tested on: COC(=O)/C=C1\S/C(=N/N=C/c2ccncc2)NC1=O; test: Non-competitive inhibition of mushroom tyrosinase assessed as substrate Km at 1.06 to 17 uM preincubated for 10 mins followed by addition of varying concentration of substrate L-DOPA measured after 20 mins by Lineweaver-Burk plot analysis (reference value: […] mM); conditions: Agaricus bisporus
[7] = tested on: COC(=O)/C=C1\S/C(=N/N=C/c2ccncc2)NC1=O; test: Non-competitive inhibition of mushroom tyrosinase assessed as Vmax of substrate at 17 uM preincubated for 10 mins followed by addition of varying concentration of substrate L-DOPA measured every 30 secs up to 5 mins by Lineweaver-Burk plot analysis (reference value: […] deltaA/s); conditions: Agaricus bisporus

Sequence of Mushroom tyrosinase (Agaricus bisporus) (from UniProt O42713+Q00024+C7FF04+C7FF05) (C7FF05 whole entry, looked up): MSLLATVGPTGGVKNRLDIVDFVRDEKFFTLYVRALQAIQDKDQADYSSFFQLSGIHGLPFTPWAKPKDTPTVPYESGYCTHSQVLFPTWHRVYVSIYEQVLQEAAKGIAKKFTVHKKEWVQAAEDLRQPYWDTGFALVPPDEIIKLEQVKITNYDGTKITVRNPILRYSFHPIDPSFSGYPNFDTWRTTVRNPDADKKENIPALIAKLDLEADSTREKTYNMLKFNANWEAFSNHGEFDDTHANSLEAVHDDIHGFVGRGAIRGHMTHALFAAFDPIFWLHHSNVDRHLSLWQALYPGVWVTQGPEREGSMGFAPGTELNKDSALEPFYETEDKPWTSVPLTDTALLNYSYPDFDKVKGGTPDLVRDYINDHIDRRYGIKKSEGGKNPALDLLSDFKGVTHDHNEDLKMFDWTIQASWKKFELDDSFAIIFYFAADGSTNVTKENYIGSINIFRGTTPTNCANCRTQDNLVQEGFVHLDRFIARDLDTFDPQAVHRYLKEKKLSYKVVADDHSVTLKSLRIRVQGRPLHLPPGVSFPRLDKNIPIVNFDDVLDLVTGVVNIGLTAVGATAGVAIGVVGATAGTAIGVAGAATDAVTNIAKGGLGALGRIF
Sequence of Mushroom tyrosinase (Agaricus bisporus) (from UniProt O42713+Q00024+C7FF04+C7FF05) (C7FF04 whole entry, looked up): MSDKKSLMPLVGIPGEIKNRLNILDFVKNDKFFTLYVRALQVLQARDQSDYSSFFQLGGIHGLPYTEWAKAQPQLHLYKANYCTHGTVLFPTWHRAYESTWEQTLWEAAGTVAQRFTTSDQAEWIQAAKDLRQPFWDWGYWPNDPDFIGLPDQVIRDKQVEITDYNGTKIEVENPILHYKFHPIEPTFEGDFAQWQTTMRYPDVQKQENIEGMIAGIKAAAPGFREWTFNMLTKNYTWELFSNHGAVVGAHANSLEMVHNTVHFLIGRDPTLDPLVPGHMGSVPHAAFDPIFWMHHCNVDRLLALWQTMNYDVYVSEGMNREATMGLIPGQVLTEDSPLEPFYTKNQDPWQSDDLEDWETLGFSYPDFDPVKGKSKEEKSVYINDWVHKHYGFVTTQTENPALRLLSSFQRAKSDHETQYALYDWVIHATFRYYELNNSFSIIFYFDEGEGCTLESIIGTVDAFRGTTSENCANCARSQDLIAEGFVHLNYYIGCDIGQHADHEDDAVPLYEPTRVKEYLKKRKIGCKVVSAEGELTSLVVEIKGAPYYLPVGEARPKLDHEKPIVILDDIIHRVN
Sequence of Mushroom tyrosinase (Agaricus bisporus) (from UniProt O42713+Q00024+C7FF04+C7FF05) (Q00024 whole entry, looked up): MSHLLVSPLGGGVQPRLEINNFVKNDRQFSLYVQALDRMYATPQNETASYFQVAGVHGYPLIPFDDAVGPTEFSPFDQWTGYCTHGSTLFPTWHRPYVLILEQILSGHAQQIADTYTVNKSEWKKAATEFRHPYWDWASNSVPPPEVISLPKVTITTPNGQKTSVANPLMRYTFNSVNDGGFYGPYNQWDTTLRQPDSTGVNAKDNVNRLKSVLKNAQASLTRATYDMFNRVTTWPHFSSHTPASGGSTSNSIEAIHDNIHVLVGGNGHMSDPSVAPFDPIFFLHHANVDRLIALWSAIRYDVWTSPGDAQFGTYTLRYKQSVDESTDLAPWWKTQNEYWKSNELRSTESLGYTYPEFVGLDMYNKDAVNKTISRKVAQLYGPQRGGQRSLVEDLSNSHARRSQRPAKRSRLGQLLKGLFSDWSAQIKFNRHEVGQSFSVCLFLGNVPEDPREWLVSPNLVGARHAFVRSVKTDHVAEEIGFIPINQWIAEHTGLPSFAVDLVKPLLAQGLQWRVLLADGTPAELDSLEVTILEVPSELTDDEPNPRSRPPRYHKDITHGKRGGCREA
Sequence of Mushroom tyrosinase (Agaricus bisporus) (from UniProt O42713+Q00024+C7FF04+C7FF05) (O42713 whole entry, looked up): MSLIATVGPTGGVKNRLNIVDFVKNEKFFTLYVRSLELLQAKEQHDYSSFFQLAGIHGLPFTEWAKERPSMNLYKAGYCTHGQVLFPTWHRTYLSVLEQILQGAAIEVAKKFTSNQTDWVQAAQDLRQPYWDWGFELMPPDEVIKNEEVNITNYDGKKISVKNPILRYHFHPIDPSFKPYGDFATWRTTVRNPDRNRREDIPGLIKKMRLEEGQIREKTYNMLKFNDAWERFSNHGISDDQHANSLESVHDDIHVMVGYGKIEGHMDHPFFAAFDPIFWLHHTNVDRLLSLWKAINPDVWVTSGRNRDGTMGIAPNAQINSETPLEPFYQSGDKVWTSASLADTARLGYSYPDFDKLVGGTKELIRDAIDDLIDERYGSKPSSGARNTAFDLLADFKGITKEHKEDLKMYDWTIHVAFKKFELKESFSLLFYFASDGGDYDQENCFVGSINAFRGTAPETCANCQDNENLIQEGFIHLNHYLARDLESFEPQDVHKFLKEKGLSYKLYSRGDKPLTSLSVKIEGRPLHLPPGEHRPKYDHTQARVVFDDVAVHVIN

Compound: COC(=O)/C=C1\S/C(=N/N=C/c2ccc(OCc3ccccc3)cc2)NC1=O
- IC50 (Mushroom tyrosinase [1]): 141.77 µM

Compound: COC(=O)/C=C1\S/C(=N/N=C/c2ccc(OCc3ccc(OC)cc3)cc2)NC1=O
- IC50 (Mushroom tyrosinase [1]): 297.6 µM

Compound: COC(=O)/C=C1\S/C(=N/N=C/c2ccc(C)o2)NC1=O
- IC50 (Mushroom tyrosinase [1]): 49.82 µM

Compound: COC(=O)/C=C1\S/C(=N/N=C/c2ccc(Br)s2)NC1=O
- IC50 (Mushroom tyrosinase [1]): 348.93 µM

Compound: COC(=O)/C=C1\S/C(=N/N=C/C=C/c2ccccc2)NC1=O
- IC50 (Mushroom tyrosinase [1]): 208.25 µM

Compound: COC(=O)/C=C1\S/C(=N/N=C/c2ccncc2)NC1=O
- inhibition [2]: Active
- IC50 (Mushroom tyrosinase [1]): 3.17 µM
- Ki (Mushroom tyrosinase [3]): 1.5 µM

Compound: Mushroom tyrosinase (Agaricus bisporus) (from UniProt O42713+Q00024+C7FF04+C7FF05)
- Vmax (10'-3deltaA/s) [4]: 1
- Vmax (10'-4deltaA/s) [5]: 5.55
- Km [6]: 1000 µM
- Vmax (10'-3deltaA/s) [7]: 3.33

Compound: COC(=O)/C=C1\SC(N/N=C/c2ccco2)=NC1=O
- IC50 (Mushroom tyrosinase [1]): 75.26 µM

Compound: COC(=O)/C=C1\S/C(=N/N=C/c2ccc[nH]2)NC1=O
- IC50 (Mushroom tyrosinase [1]): 50.12 µM

Compound: COC(=O)/C=C1\S/C(=N/N=C/c2ccc(N(C)C)cc2)NC1=O
- IC50 (Mushroom tyrosinase [1]): 100.45 µM
